Experimental data: patent US20090099238A1, “USE OF A PPAR-ALPHA AGONIST TO TREAT PATIENTS SUFFERING FROM WEIGHT GAIN ASSOCIATED WITH A PPAR-GAMMA AGONIST TREATMENT” (priority 2003, published 2009)

Experiments:
[1] = Glycemia in obese Zucker rats under fenofibrate, rosiglitazone or co-administration (Example 1); format: in vivo
Protocol: (§1) Male homozygous Zucker rats of 9 to 11 weeks of age and their lean controls were received from Iffa-Credo (France). They were put into individual cages in a temperature-, humidity- and light-controlled room (21-23° C., 12-12 h light-dark cycle). […] After acclimatization, they were randomized into groups of 10, based on body weight.
(§2) The experimental groups were: Group 1=lean rats, untreated; Group 2=obese rats, treated with the vehicle p.o., twice daily (at 8 a.m. and 8 p.m.); Group 3=obese rats, treated with Fenofibrate, 100 mg/kg, p.o., twice daily (at 8 a.m. and 8 p.m.); Group 4=obese rats, treated with Rosiglitazone. 0.3 mg/kg, p.o., twice daily (at 8 a.m. and 8 p.m.); Group 5=obese rats, treated with Rosiglitazone, 3.0 mg/kg., p.o., twice daily (at 8 a.m. and 8 p.m.); Group 6=obese rats, treated with Fenofibrate, 100 mg/kg and Rosiglitazone, 0.3 mg/kg, p.o., twice daily (at 8 a.m. and 8 p.m.); Group 7=obese rats, treated with Fenofibrate, 100 mg/kg and Rosiglitazone, 3.0 mg/kg, p.o., twice daily (at 8 a.m. and 8 p.m.).
(§3) The following parameters were monitored: glycemia (mg/dl) and body weight gain (g).

[2] = Body weight (gain) in obese Zucker rats under fenofibrate, rosiglitazone or co-administration (Example 1); format: in vivo
Protocol: as §1, §2, §3

[3] = fatty Zucker rats; cited from earlier work
[4] = Group 4: Rosiglitazone 0.3 mg/kg p.o. twice daily, after 41 days of treatment
[5] = Group 4: Rosiglitazone 0.3 mg/kg p.o. twice daily, after 69 days of treatment
[6] = Group 5: Rosiglitazone 3.0 mg/kg p.o. twice daily, after 41 days of treatment
[7] = Group 5: Rosiglitazone 3.0 mg/kg p.o. twice daily, after 69 days of treatment
[8] = Group 3: Fenofibrate 100 mg/kg p.o. twice daily, after 41 days of treatment
[9] = Group 3: Fenofibrate 100 mg/kg p.o. twice daily, after 69 days of treatment

With `CN(CCOc1ccc(CC2SC(=O)NC2=O)cc1)c1ccccn1` (stereo not drawn) [Rosiglitazone, rosiglitazone] the Glycemia [1, 4] was 274.6 ± 56.4 mg/dL, the Glycemia [1, 5] was 446.0 ± 52.4 mg/dL and the Glycemia [1, 6] was 119.6 ± 5.9 mg/dL. The Glycemia [1, 7] was 151.4 ± 6.5 mg/dL, the “Body Weight” value [2, 4] was 538.5 ± 15.8 g and the “Body Weight” value [2, 5] was 615.2 ± 25.9 g. For the same compound, the “Body Weight” value [2, 6] was 601.4 ± 9.3 g and the “Body Weight” value [2, 7] was 721.0 ± 12.3 g.
In the case of `COc1ccc(CC2SC(=O)NC2=O)cc1C(=O)NCc1ccc(C(F)(F)F)cc1` (stereo not drawn) [KRP 297], the “body weight gain (result in words)” value [3] is given as “no change in body weight gain”, the “serum insulin (result in words)” value [3] is given as “affected serum triglycerides and insulin” and the “serum triglycerides (result in words)” value [3] is given as “affected serum triglycerides and insulin”.
With `CC(C)OC(=O)C(C)(C)Oc1ccc(C(=O)c2ccc(Cl)cc2)cc1` [Fenofibrate, fenofibrate] the Glycemia [1, 8] was 222.2 ± 53.1 mg/dL, the Glycemia [1, 9] was 372.5 ± 78.5 mg/dL and the “Body Weight” value [2, 8] was 357.0 ± 7.9 g. For the same compound, the “Body Weight” value [2, 9] was 380.6 ± 13.7 g.
